Among the data in ChEMBL document CHEMBL1137417, “Design, synthesis, and biological evaluation of hydroquinone derivatives of 17-amino-17-demethoxygeldanamycin as potent, water-soluble inhibitors of Hsp90” (J Med Chem, 2006) are EC50 and GI50 values, retold here.

Assay [1] addresses T1, Heat shock protein HSP90 (Homo sapiens, UniProt P07900+P08238). Put plainly: Upregulation of Hsp70 in SKOV3 cells. To be noted: sk-ov-3. It counts as functional, cell-based.
In assay [2] the target is T1, Heat shock protein HSP90. Briefly: Upregulation of Hsp70 in SKBR3 cells. It is filed as functional, cell-based. To be noted: sk-br-3.
Assay [3] deals with T1, Heat shock protein HSP90. Put plainly: Inhibition of BODIPY-AG binding to human HSP90. It is filed as protein assay.
Assay [4] deals with T1, Heat shock protein HSP90. Briefly: Degradation of Her2 in SKOV3 cells. To be noted: sk-ov-3. It counts as functional, cell-based.
The subject of assay [5] is SK-OV-3. Put plainly: Inhibition of human SKOV3 cell growth. It counts as functional.
Assay [6] has as its system SK-BR-3. Briefly: Inhibition of human SKBR3 cell growth. It counts as functional.
The target in assay [7] is Endoplasmin (Canis lupus familiaris, UniProt P41148). Briefly: Inhibition of BODIPY-AG binding to dog Grp94.
Assay [8] addresses T1, Heat shock protein HSP90. Put plainly: Degradation of Her2 in SKBR3 cells. It counts as functional, cell-based. To be noted: sk-br-3.

Where only a bound is given, the exact number is not on record here.

Endoplasmin, sequence (P41148 whole entry): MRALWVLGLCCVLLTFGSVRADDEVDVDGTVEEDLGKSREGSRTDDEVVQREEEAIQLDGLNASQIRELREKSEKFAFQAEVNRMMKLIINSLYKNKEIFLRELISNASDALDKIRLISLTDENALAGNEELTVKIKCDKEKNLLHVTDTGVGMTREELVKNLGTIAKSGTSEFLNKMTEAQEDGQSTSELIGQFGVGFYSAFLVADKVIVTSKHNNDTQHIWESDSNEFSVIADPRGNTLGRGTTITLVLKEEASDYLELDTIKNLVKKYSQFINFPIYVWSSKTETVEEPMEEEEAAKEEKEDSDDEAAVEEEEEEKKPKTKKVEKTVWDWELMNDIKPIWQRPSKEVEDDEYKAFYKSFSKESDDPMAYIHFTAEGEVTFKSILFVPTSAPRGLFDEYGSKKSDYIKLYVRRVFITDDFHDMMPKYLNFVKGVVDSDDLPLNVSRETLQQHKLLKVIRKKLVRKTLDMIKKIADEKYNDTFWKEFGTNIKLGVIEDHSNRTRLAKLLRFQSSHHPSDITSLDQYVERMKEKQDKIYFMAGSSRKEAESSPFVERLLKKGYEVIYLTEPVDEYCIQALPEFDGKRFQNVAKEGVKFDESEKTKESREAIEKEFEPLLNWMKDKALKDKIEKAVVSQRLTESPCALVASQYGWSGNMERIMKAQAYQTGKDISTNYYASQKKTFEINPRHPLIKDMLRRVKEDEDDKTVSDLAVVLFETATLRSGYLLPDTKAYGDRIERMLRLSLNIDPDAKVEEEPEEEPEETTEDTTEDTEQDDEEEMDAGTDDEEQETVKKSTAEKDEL

With `CO[C@H]1/C=C\C=C(/C)C(=O)Nc2cc(O)c(N)c(c2O)C[C@@H](C)C[C@H](OC)[C@H](O)[C@@H](C)/C=C(\C)[C@@H]1OC(N)=O.Cl`, the concentration giving a half-maximal response (EC50) amounted to 0.01 µM in assay [1]; 0.058 µM in assay [2]; 0.034 µM in assay [3]; 0.031 µM in assay [4]; 0.048 µM in assay [7]. Also, the values for the GI50 in assay [5] and in assay [6] were 0.017 µM and 0.05 µM, respectively.
On to `CO[C@H]1/C=C\C=C(/C)C(=O)Nc2cc(O)c(NC[C@H](O)CO)c(c2O)C[C@@H](C)C[C@H](OC)[C@H](O)[C@@H](C)/C=C(\C)[C@@H]1OC(N)=O.Cl`, for which the EC50 is 0.321 µM in assay [8]; over 10 µM in assay [1]; 0.102 µM in assay [2]; 0.091 µM in assay [3]; 0.756 µM in assay [4]; 0.131 µM in assay [7]. For the same molecule, the concentration for 50% growth inhibition (GI50) in assay [5] was found to be 1.11 µM; in assay [6] it was 0.832 µM.
As for `CO[C@H]1/C=C\C=C(/C)C(=O)NC2=CC(=O)C(NC[C@H](O)CO)=C(C[C@@H](C)C[C@H](OC)[C@H](O)[C@@H](C)/C=C(\C)[C@@H]1OC(N)=O)C2=O`, the EC50 in assay [8] was found to be 0.141 µM; in assay [1] it was 0.853 µM; in assay [2] it was 0.14 µM; in assay [3], 0.066 µM; in assay [4] it was 4.585 µM; in assay [7] it was 0.072 µM. Moreover, the concentration for 50% growth inhibition (GI50) was determined as 2.02 µM in assay [5] and 0.724 µM in assay [6].
For `CO[C@H]1/C=C\C=C(/C)C(=O)NC2=CC(=O)C(N)=C(C[C@@H](C)C[C@H](OC)[C@H](O)[C@@H](C)/C=C(\C)[C@@H]1OC(N)=O)C2=O`, the EC50 in assay [8] is 0.008 µM; in assay [1], 0.006 µM; in assay [2], 0.017 µM; in assay [3] it was 0.034 µM; in assay [4], 0.053 µM; in assay [7], 0.048 µM. Also, the GI50 was found to be 0.014 µM in assay [5] and 0.025 µM in assay [6].
In the case of `C=CCNc1c(O)cc2nc3oc2c1C[C@@H](C)C[C@H](OC)[C@H](O)[C@@H](C)/C=C(\C)[C@H](OC(N)=O)[C@@H](OC)/C=C\C=C\3C.Cl`, the concentration giving a half-maximal response (EC50) in assay [8] was 0.585 µM; in assay [1], 3.229 µM; in assay [3] it was over 10 µM; in assay [4], 0.435 µM; in assay [7] it was over 10 µM. Besides, the concentration for 50% growth inhibition (GI50) in assay [5] was determined as 0.371 µM; in assay [6], 1.78 µM.
With `C=CCn1c(=O)oc2cc3c(O)c(c21)C[C@@H](C)C[C@H](OC)[C@H](O)[C@@H](C)/C=C(\C)[C@H](OC(N)=O)[C@@H](OC)/C=C\C=C(/C)C(=O)N3`, the EC50 in assay [8] amounted to 1.046 µM; in assay [1], 2.283 µM; in assay [2] it was 0.384 µM; in assay [3], 0.603 µM; in assay [4] it was 0.742 µM. For the same molecule, the GI50 is 1.24 µM in assay [5] and 0.583 µM in assay [6].
In the case of `C=CCN1C(=O)COc2cc3c(O)c(c21)C[C@@H](C)C[C@H](OC)[C@H](O)[C@@H](C)/C=C(\C)[C@H](OC(N)=O)[C@@H](OC)/C=C\C=C(/C)C(=O)N3`, the concentration for a half-maximal effect (EC50) in assay [8] was determined as 0.19 µM; in assay [1], 1.005 µM; in assay [2] it was 0.311 µM; in assay [3], 0.541 µM; in assay [4], 0.415 µM. In addition, the GI50 worked out at 0.726 µM in assay [5] and 0.739 µM in assay [6].
With `Nc1ncnc2c1ncn2[C@@H]1O[C@H](COP(=O)(O)OP(=O)(O)O)[C@@H](O)[C@H]1O` [ADENOSINE DIPHOSPHATE], the half-maximal effective concentration (EC50) in assay [3] was determined as 87 µM; in assay [7] it was 21 µM.
For `Nc1ncnc2c1ncn2[C@@H]1O[C@H](COP(=O)(O)OP(=O)(O)OP(=O)(O)O)[C@@H](O)[C@H]1O` [ADENOSINE TRIPHOSPHATE], the EC50 in assay [3] amounted to 1500 µM; in assay [7], 19 µM.
Consider `CO[C@H]1/C=C\C=C(/C)C(=O)NC2=CC(=O)C(NCCN(C)C)=C(C[C@@H](C)C[C@H](OC)[C@H](O)[C@@H](C)/C=C(\C)[C@@H]1OC(N)=O)C2=O` [ALVESPIMYCIN], for which the 50% growth inhibitory concentration (GI50) in assay [5] came to 0.032 µM; in assay [6], 0.029 µM. The same molecule gave a concentration for a half-maximal effect (EC50) in assay [7] of 0.065 µM.
Take `C=CCNc1c(O)cc2c(O)c1C[C@@H](C)C[C@H](OC)[C@H](O)[C@@H](C)/C=C(\C)[C@H](OC(N)=O)[C@@H](OC)/C=C\C=C(/C)C(=O)N2.Cl` [RETASPIMYCIN HYDROCHLORIDE]: the EC50 in assay [8] came out at 0.02 µM; in assay [1], 0.016 µM; in assay [3], 0.063 µM; in assay [4] it was 0.027 µM; in assay [7] it was 0.119 µM. The GI50 worked out at 0.052 µM in assay [5] and 0.022 µM in assay [6].
As to `C=CCNC1=C2C[C@@H](C)C[C@H](OC)[C@H](O)[C@@H](C)/C=C(\C)[C@H](OC(N)=O)[C@@H](OC)/C=C\C=C(/C)C(=O)NC(=CC1=O)C2=O` [TANESPIMYCIN], the 50% growth inhibitory concentration (GI50) in assay [5] is 0.015 µM; in assay [6], 0.017 µM. The molecule further had an EC50 in assay [7] of 0.124 µM.

In general, EC50 refers to the concentration at which the effect is half-maximal. Read a low EC50 as an effect from little substance. In general, GI50 refers to the concentration that inhibits growth by half. A high value points to lower sensitivity of the cells.
